Literature values in CN101444491A, “奥扎格雷钠微球冻干制剂及其制备方法” (HAINAN SHU ER PHARMACEUTICAL RESEARCH Co Ltd, priority 2008, dated 2009).

Assays:
[1] = after conversion into sodium salt (JP2001316265)

stability in aqueous solution [1]	solubility in water	SMILES
稳定性下降		O=C(O)/C=C/c1ccc(Cn2ccnc2)cc1 [奥扎格雷钠, 钠盐]
	溶解度较小	O=C(O)/C=C/c1ccc(Cn2ccnc2)cc1 [奥扎格雷]
